Experimental data: ChEMBL document CHEMBL3526102, “Biotransformation of two β-secretase inhibitors including ring opening and contraction of a pyrimidine ring” (Drug Metab Dispos, 2013)
One block for each compound: values may come before it.

How the values were obtained:
Hepatocyte [1] = experiment: Drug level in human hepatocytes treated with [14C]-AZD3839 at 5 uM after 120 mins by LC-MS analysis; type: ADME, cell-based; conditions: 2 h
Hepatocyte [2] = experiment: Drug level in Sprague-Dawley rat hepatocytes treated with [14C]-AZD3839 at 5 uM after 120 mins by LC-MS analysis; type: ADME, cell-based; conditions: 2 h
Liver microsome [3] = experiment: Drug level in human liver microsomes treated with (S)-1-pyridin-4-yl-4-fluoro-1-(3-(pyrimidin-5-yl)phenyl)-1H-isoindol-3-amine at 1 uM after 30 mins by LC-MS analysis; type: ADME; conditions: 0.5 h
Cytochrome P450 3A4 = Cytochrome P450 3A4 (Homo sapiens, UniProt P08684); experiment: Activity of human recombinant CYP3A4 expressed in insect BTI-TN-5B1-4 cell microsomes assessed as enzyme-mediated drug metabolism treated with (S)-1-pyridin-4-yl-4-fluoro-1-(3-(pyrimidin-5-yl)phenyl)-1H-isoindol-3-amine at 2 uM after 30 mins; type: ADME; conditions: bti-tn-5b1-4, 0.5 h
Chain of Cytochrome P450 3A4 (P08684 whole entry): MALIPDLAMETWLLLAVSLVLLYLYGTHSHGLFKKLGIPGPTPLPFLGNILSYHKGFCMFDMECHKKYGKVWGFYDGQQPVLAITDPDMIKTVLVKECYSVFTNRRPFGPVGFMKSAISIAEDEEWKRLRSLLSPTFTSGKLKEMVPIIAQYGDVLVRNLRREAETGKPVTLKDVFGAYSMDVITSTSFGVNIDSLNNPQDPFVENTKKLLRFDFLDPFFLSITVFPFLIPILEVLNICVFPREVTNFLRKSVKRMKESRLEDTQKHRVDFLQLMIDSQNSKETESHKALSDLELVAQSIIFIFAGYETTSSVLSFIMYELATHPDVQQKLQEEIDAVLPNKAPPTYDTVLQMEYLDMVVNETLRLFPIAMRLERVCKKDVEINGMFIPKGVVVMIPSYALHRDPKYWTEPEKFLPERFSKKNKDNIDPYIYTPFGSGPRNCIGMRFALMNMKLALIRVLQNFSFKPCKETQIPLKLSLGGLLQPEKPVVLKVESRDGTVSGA

Liver microsome [4] = experiment: Drug level in Sprague-Dawley rat liver microsomes treated with (S)-1-pyridin-4-yl-4-fluoro-1-(3-(pyrimidin-5-yl)phenyl)-1H-isoindol-3-amine at 1 uM after 30 mins by LC-MS analysis; type: ADME; conditions: 0.5 h
Plasma = experiment: Drug level in bile duct-cannulated Sprague-Dawley rat plasma treated with (S)-1-pyridin-4-yl-4-fluoro-1-(3-(pyrimidin-5-yl)phenyl)-1H-isoindol-3-amine at 30 umol/kg, iv after 6 hrs by LC-MS analysis; type: ADME, organism-based; conditions: in vivo
Hepatocyte [5] = experiment: Drug level in New Zealand White rabbit hepatocytes treated with [14C]-AZD3839 at 5 uM after 120 mins by LC-MS analysis; type: ADME, cell-based, Oryctolagus cuniculus; conditions: 2 h
Liver = experiment: Drug level in Sprague-Dawley rat aroclor 1254-induced liver S9 fraction treated with AZD3839 at 100 uM by LC-MS analysis; type: ADME, subcellular; conditions: s9, 100 µM
Liver microsome [6] = experiment: Drug level in Sprague-Dawley rat liver microsomes treated with AZD3839 at 1 uM after 30 mins by LC-MS analysis; type: ADME; conditions: 0.5 h
Liver microsome [7] = experiment: Drug level in human liver microsomes treated with AZD3839 at 1 uM after 30 mins by LC-MS analysis; type: ADME; conditions: 0.5 h
[8] = Drug level in Sprague-Dawley rat bile treated with [14C]-AZD3839 at 58 umol/kg, po after 48 hrs by LC-MS analysis; type: ADME, organism-based; conditions: in vivo
[9] = Drug metabolism in New Zealand White rabbit hepatocytes assessed as 1-(3-(3-amino-1-(2-(difluoromethyl)pyridin-4-yl)-4-fluoro-1H-isoindol-1-yl)phenyl)ethane-1,2-diol formation at 5 uM after 120 mins by LC-MS analysis; type: ADME, cell-based, Oryctolagus cuniculus, Hepatocyte; conditions: 2 h
[10] = Drug metabolism in human hepatocytes assessed as 5-(3-(3-amino-1-(2-(difluoromethyl)-1-oxidopyridin-4-yl)-4-fluoro-1H-isoindol-1-yl)phenyl)pyrimidine 1-oxide formation at 5 uM after 120 mins by LC-MS analysis; type: ADME, cell-based, Hepatocyte; conditions: 2 h
[11] = Drug metabolism in Sprague-Dawley rat hepatocytes assessed as (2S,3S,4S,5R,6S)-6-(5-(3-(3-amino-1-(2-(difluoromethyl)pyridin-4-yl)-4-fluoro-1H-isoindol-1-yl)phenyl)-1H-imidazol-1-yloxy)-3,4,5-trihydroxytetrahydro-2H-pyran-2-carboxylic acid formation at 5 uM after 120 mins by LC-MS analysis; type: ADME, cell-based, Hepatocyte
[12] = Drug metabolism in Sprague-Dawley rat hepatocytes assessed as (S)-4-(3-amino-4-fluoro-1-(3-(pyrimidin-5-yl)phenyl)-1H-isoindol-1-yl)-2-(difluoromethyl)pyridine 1-oxide formation at 5 uM after 120 mins by LC-MS analysis; type: ADME, cell-based, Hepatocyte; conditions: 2 h
[13] = Drug metabolism in Sprague-Dawley rat bile assessed as (2S,3S,4S,5R,6S)-6-(5-(3-(3-amino-1-(2-(difluoromethyl)pyridin-4-yl)-4-fluoro-1H-isoindol-1-yl)phenyl)-1H-imidazol-1-yloxy)-3,4,5-trihydroxytetrahydro-2H-pyran-2-carboxylic acid formation at 58 umol/kg, po after 48 hrs by LC-MS analysis; type: ADME, organism-based; conditions: in vivo
[14] = Drug metabolism in Sprague-Dawley rat hepatocytes assessed as 5-(3-(3-amino-1-(2-(difluoromethyl)pyridin-4-yl)-4-fluoro-1H-isoindol-1-yl)phenyl)pyrimidin-4-ol formation at 5 uM after 120 mins by LC-MS analysis; type: ADME, cell-based, Hepatocyte; conditions: 2 h
[15] = Drug metabolism in human hepatocytes assessed as (S)-4-(3-amino-4-fluoro-1-(3-(pyrimidin-5-yl)phenyl)-1H-isoindol-1-yl)-2-(difluoromethyl)pyridine 1-oxide formation at 5 uM after 120 mins by LC-MS analysis; type: ADME, cell-based, Hepatocyte; conditions: 2 h
[16] = Drug excretion in Han Wistar rat feces at 5.8 umol/kg, iv by LC-MS analysis; type: ADME, organism-based; conditions: faeces, read-out: Drug excretion
[17] = Drug metabolism in Sprague-Dawley rat hepatocytes assessed as (S)-5-(3-(3-amino-1-(2-(difluoromethyl)pyridin-4-yl)-4-fluoro-1H-isoindol-1-yl)phenyl)pyrimidine 1-oxide formation at 5 uM after 120 mins by LC-MS analysis; type: ADME, cell-based, Hepatocyte; conditions: 2 h
[18] = Drug metabolism in human hepatocytes assessed as 5-(3-(3-amino-1-(2-(difluoromethyl)pyridin-4-yl)-4-fluoro-1H-isoindol-1-yl)phenyl)pyrimidin-4-ol formation at 5 uM after 120 mins by LC-MS analysis; type: ADME, cell-based, Hepatocyte; conditions: 2 h
[19] = Drug metabolism in human hepatocytes assessed as (S)-5-(3-(3-amino-1-(2-(difluoromethyl)pyridin-4-yl)-4-fluoro-1H-isoindol-1-yl)phenyl)pyrimidine 1-oxide formation at 5 uM after 120 mins by LC-MS analysis; type: ADME, cell-based, Hepatocyte; conditions: 2 h
[20] = Drug metabolism in New Zealand White rabbit hepatocytes assessed as (S)-5-(3-(3-amino-1-(2-(difluoromethyl)pyridin-4-yl)-4-fluoro-1H-isoindol-1-yl)phenyl)pyrimidine 1-oxide formation at 5 uM after 120 mins by LC-MS analysis; type: ADME, cell-based, Oryctolagus cuniculus, Hepatocyte; conditions: 2 h
[21] = Drug metabolism in Sprague-Dawley rat bile assessed as 5-(3-(3-amino-1-(2-(difluoromethyl)pyridin-4-yl)-4-fluoro-1H-isoindol-1-yl)phenyl)-1H-imidazol-1-ol formation at 58 umol/kg, po after 48 hrs by LC-MS analysis; type: ADME, organism-based; conditions: in vivo
[22] = Drug excretion in Han Wistar rat urine at 5.8 umol/kg, iv by LC-MS analysis; type: ADME, organism-based; conditions: read-out: Drug excretion
[23] = Drug metabolism in human hepatocytes assessed as 1-(3-(3-amino-1-(2-(difluoromethyl)pyridin-4-yl)-4-fluoro-1H-isoindol-1-yl)phenyl)ethane-1,2-diol formation at 5 uM after 120 mins by LC-MS analysis; type: ADME, cell-based, Hepatocyte; conditions: 2 h
[24] = Drug metabolism in Sprague-Dawley rat hepatocytes assessed as 5-(3-(3-amino-1-(2-(difluoromethyl)-1-oxidopyridin-4-yl)-4-fluoro-1H-isoindol-1-yl)phenyl)pyrimidine 1-oxide formation at 5 uM after 120 mins by LC-MS analysis; type: ADME, cell-based, Hepatocyte; conditions: 2 h
[25] = Drug metabolism in human hepatocytes assessed as 5-(3-(3-amino-1-(2-(difluoromethyl)pyridin-4-yl)-4-fluoro-1H-isoindol-1-yl)phenyl)pyrimidin-4(3H)-one formation at 5 uM after 120 mins by LC-MS analysis; type: ADME, cell-based, Hepatocyte; conditions: 2 h
Liver microsome [26] = experiment: Drug metabolism in Sprague-Dawley rat liver microsomes assessed as (S)-5-(3-(3-amino-1-(2-(difluoromethyl)pyridin-4-yl)-4-fluoro-1H-isoindol-1-yl)phenyl)pyrimidine 1-oxide formation at 1 uM after 30 mins by LC-MS analysis; type: ADME; conditions: 0.5 h
[27] = Drug metabolism in Sprague-Dawley rat aroclor 1254-induced liver S9 fraction assessed as 5-(3-(3-amino-1-(2-(difluoromethyl)pyridin-4-yl)-4-fluoro-1H-isoindol-1-yl)phenyl)pyrimidin-4(3H)-one formation at 100 uM by LC-MS analysis; type: ADME, subcellular; conditions: s9, 100 µM
Liver microsome [28] = experiment: Drug metabolism in Sprague-Dawley rat liver microsomes assessed as (S)-4-(3-amino-4-fluoro-1-(3-(pyrimidin-5-yl)phenyl)-1H-isoindol-1-yl)-2-(difluoromethyl)pyridine 1-oxide formation at 1 uM after 30 mins by LC-MS analysis; type: ADME; conditions: 0.5 h
[29] = Drug metabolism in Sprague-Dawley rat aroclor 1254-induced liver S9 fraction assessed as (S)-5-(3-(3-amino-1-(2-(difluoromethyl)pyridin-4-yl)-4-fluoro-1H-isoindol-1-yl)phenyl)pyrimidine 1-oxide formation at 100 uM by LC-MS analysis; type: ADME, subcellular; conditions: s9, 100 µM
Liver microsome [30] = experiment: Drug metabolism in human liver microsomes assessed as (S)-5-(3-(3-amino-1-(2-(difluoromethyl)pyridin-4-yl)-4-fluoro-1H-isoindol-1-yl)phenyl)pyrimidine 1-oxide formation at 1 uM after 30 mins by LC-MS analysis; type: ADME; conditions: 0.5 h
Liver microsome [31] = experiment: Drug metabolism in human liver microsomes assessed as (S)-4-(3-amino-4-fluoro-1-(3-(pyrimidin-5-yl)phenyl)-1H-isoindol-1-yl)-2-(difluoromethyl)pyridine 1-oxide formation at 1 uM after 30 mins by LC-MS analysis; type: ADME; conditions: 0.5 h
[32] = Drug metabolism in Sprague-Dawley rat aroclor 1254-induced liver S9 fraction assessed as (S)-4-(3-amino-4-fluoro-1-(3-(pyrimidin-5-yl)phenyl)-1H-isoindol-1-yl)-2-(difluoromethyl)pyridine 1-oxide formation at 100 uM by LC-MS analysis; type: ADME, subcellular; conditions: s9, 100 µM
[33] = Drug excretion in Sprague-Dawley rat feces at 30 umol/kg, iv after 48 hrs by LC-MS analysis; type: ADME, organism-based; conditions: faeces, read-out: Drug excretion
[34] = Drug excretion in Sprague-Dawley rat urine at 30 umol/kg, iv after 24 hrs by LC-MS analysis; type: ADME, organism-based; conditions: read-out: Drug excretion
[35] = Drug excretion in bile duct-cannulated Sprague-Dawley rat bile at 30 umol/kg, iv after 6 hrs by LC-MS analysis; type: ADME, organism-based; conditions: read-out: Drug excretion

SMILES: NC1=NC(c2cccc(-c3cnc[n+]([O-])c3)c2)(c2cc[n+]([O-])c(C(F)F)c2)c2cccc(F)c21 (stereo not given)
Drug metabolism (Hepatocyte [1]): metabolite_detected
Drug metabolism (Hepatocyte [2]): metabolite_detected

SMILES: NC1=NC(c2cc[n+]([O-])cc2)(c2cccc(-c3cncnc3)c2)c2cccc(F)c21 (stereo not given)
Drug metabolism (Liver microsome [3]): metabolite_detected
Drug metabolism (Cytochrome P450 3A4): metabolite_detected
Drug metabolism (Liver microsome [4]): metabolite_detected
Drug metabolism (Plasma): metabolite_detected

SMILES: NC1=N[C@@](c2cccc(-c3cnc[n+]([O-])c3)c2)(c2ccnc(C(F)F)c2)c2cccc(F)c21
Drug metabolism (Hepatocyte [5]): metabolite_detected
Drug metabolism (Liver): metabolite_detected
Drug metabolism (Hepatocyte [1]): metabolite_detected
Drug metabolism (Hepatocyte [2]): metabolite_detected
Drug metabolism (Liver microsome [6]): metabolite_detected
Drug metabolism (Liver microsome [7]): metabolite_detected

SMILES: NC1=N[C@@](c2cccc(-c3cncnc3)c2)(c2cc[n+]([O-])c(C(F)F)c2)c2cccc(F)c21
Drug metabolism (Liver): metabolite_detected
Drug metabolism (Hepatocyte [1]): metabolite_detected
Drug metabolism (Hepatocyte [2]): metabolite_detected
Drug metabolism (Liver microsome [6]): metabolite_detected
Drug metabolism (Liver microsome [7]): metabolite_detected

SMILES: NC1=NC(c2cccc(-c3cncn3O)c2)(c2ccnc(C(F)F)c2)c2cccc(F)c21 (stereo not given)
Drug metabolism [8]: metabolite_detected

SMILES: NC1=NC(c2cc[n+]([O-])cc2)(c2cccc(-c3cnc[n+]([O-])c3)c2)c2cccc(F)c21 (stereo not given)
Drug metabolism (Plasma): metabolite_detected

SMILES: [3H]c1cc(-c2c([3H])nc([3H])nc2[3H])cc([C@@]2(c3cc([3H])nc([3H])c3)N=C(N)c3c(F)cccc32)c1
dose excreted at 48 h [33]: > 90%
dose excreted at 24 h [34]: < 10%
dose excreted at 6 h [35]: 55%

Now from value to compound:

Drug metabolism (Hepatocyte [5]): metabolite_detected
Drug metabolism (Hepatocyte [1]): metabolite_detected
SMILES: NC1=NC(c2cccc(C(O)CO)c2)(c2ccnc(C(F)F)c2)c2cccc(F)c21 (stereo not given)

Drug metabolism (Hepatocyte [2]): metabolite_detected
Drug metabolism [8]: metabolite_detected
SMILES: NC1=NC(c2cccc(-c3cncn3O[C@@H]3O[C@H](C(=O)O)[C@@H](O)[C@H](O)[C@H]3O)c2)(c2ccnc(C(F)F)c2)c2cccc(F)c21 (stereo not given in full)

Drug metabolism [9]: metabolite_detected
Drug metabolism [10]: metabolite_detected
Drug metabolism [11]: metabolite_detected
Drug metabolism [12]: metabolite_detected
Drug metabolism [13]: metabolite_detected
Drug metabolism [14]: metabolite_detected
Drug metabolism [15]: metabolite_detected
dose excreted [16]: > 90%
Drug metabolism [17]: metabolite_detected
Drug metabolism [18]: metabolite_detected
Drug metabolism [19]: metabolite_detected
Drug metabolism [20]: metabolite_detected
Drug metabolism [21]: metabolite_detected
dose excreted [22]: < 1%
Drug metabolism [23]: metabolite_detected
Drug metabolism [24]: metabolite_detected
Drug metabolism [25]: metabolite_detected
SMILES: NC1=N[C@](c2ccnc(C(F)F)c2)([14c]2[14cH][14cH][14cH][14c](-c3cncnc3)[14cH]2)c2cccc(F)c21.O=C(O)/C=C/C(=O)O

Drug metabolism (Liver microsome [26]): metabolite_detected
Drug metabolism [27]: metabolite_detected
Drug metabolism (Liver microsome [28]): metabolite_detected
Drug metabolism [29]: metabolite_detected
Drug metabolism (Liver microsome [30]): metabolite_detected
Drug metabolism (Liver microsome [31]): metabolite_detected
Drug metabolism [32]: metabolite_detected
SMILES: NC1=N[C@@](c2cccc(-c3cncnc3)c2)(c2ccnc(C(F)F)c2)c2cccc(F)c21.O=C(O)/C=C/C(=O)O
